Test results published in US8859534B2, “2-carboxamide-7-piperazinyl-benzofuran derivatives” (AstraZeneca AB, priority 2009, dated 2014).

How the values were obtained:
[1] = target: 5-HT1B receptor (Homo sapiens (Human), UniProt P28222); experiment: 5-HT1B receptor competition binding assay (SPA, [3H]-GR125743); settings: membranes of CHO cells expressing 5-HT1B receptors; radioligand [3H]-GR125743 0.15-0.2 nM
From the text: (§1) Assays that were used to measure affinity of the compounds of the present invention for 5-HT1A and 5-HT1B receptors are described in J. Recept Signal Transduct. Res. 22:483-495 (2002) and Naunyn-Schmiedeberg's Arch Pharmacol. 356:328-334 (1997) and incorporated by reference herein. These assays were be used with some modifications:
(§2) For the binding assay stably transfected chinese hamster ovary (CHO) cell lines expressing 5-HT1A receptors or 5-HT1B receptors were harvested by centrifugation at 300×g for 10 min and resuspended in 10 mM Tris-HCl, 5 mM EDTA at pH 7.4. The cells were pooled, recentrifuged and resuspended before homogenisation using a Dounce homogeniser (“type B”). Cell membranes were centrifuged at 48 000×g for 10 min and then resuspended in harvesting buffer using an Ultra-Turrax T8 (IKA Labortechnik, Germany), aliquots were stored frozen in −70° C.
Frozen membrane preparations were thawed, homogenized with an Ultra-Turrax and mixed with SPA beads (YSI coated WGA, GE Healthcare/Amersham, Buckinghamshire, UK) in assay buffer containing 50 mM Tris-Base, 4 mM MgCl2, 4 mM CaCl2 (only 5-HT1B), 1 mM EDTA, and adjusted to pH 7.4 with HCl. The beads/membrane solution, final concentration 100 pM receptors for 5-HT1A, 300 pM receptors for 5-HT1B and 0.5 mg SPA beads/well, was pre-incubated in room temperature with stirring for 30-60 min. […] Five (log interval, 10 μM to 1 nM, final concentration) or ten serial dilutions (½-log interval, 10 μM to 0.32 nM, final concentration) of compounds were prepared in DMSO from 10 mM stock solutions. The binding assays were performed in 384-well plates in a final volume of 90 μL/well with the following additions: 9 μL binding buffer; 1 μL compound/DMSO/nonspecific; 20 μL radioligand; and 60 μL beads/membrane mixture. Non-specific binding was defined by using 10 μM WAY100635 for 5-HT1A and 10 μM Methiothepin for 5-HT1B. The assay plates were incubated for 4 hours where after the plates are counted in a Wallac 1450 Microbeta Trilux counter (PerkinElmer LifeScience, US) or similar. Data from the experiments were analyzed using a four parameter logistic equation as follows: Y=Bottom+(Top-Bottom)/1+10^(LogEC50-X)nH.
• Jerning E., Rosqvist S., Mohell N. (2002) NAD-299 antagonises 5-HT-stimulated and Spiperone-inhibited [^35S]GTPγS binding in cloned 5-HT1A receptors. J Recept Signal Transduct Res 22:483-495. • Doménech T., Beleta J., Palacios J. M. (1997) Characterization of human serotonin 1D and 1B receptors using [^3H]-GR-125743, a novel radiolabelled serotonin 5HT1D/1B receptor antagonist. Naunyn-Schmiedeberg's Arch Pharmacol 356:328-334.

[2] = target: 5-HT1A receptor (Homo sapiens (Human), UniProt P08908); experiment: 5-HT1A receptor competition binding assay (SPA, [3H]-8-OH-DPAT); settings: membranes of CHO cells expressing 5-HT1A receptors; radioligand [3H]-8-OH-DPAT 0.15-0.2 nM
Sequence of 5-HT1A receptor (P08908 whole entry): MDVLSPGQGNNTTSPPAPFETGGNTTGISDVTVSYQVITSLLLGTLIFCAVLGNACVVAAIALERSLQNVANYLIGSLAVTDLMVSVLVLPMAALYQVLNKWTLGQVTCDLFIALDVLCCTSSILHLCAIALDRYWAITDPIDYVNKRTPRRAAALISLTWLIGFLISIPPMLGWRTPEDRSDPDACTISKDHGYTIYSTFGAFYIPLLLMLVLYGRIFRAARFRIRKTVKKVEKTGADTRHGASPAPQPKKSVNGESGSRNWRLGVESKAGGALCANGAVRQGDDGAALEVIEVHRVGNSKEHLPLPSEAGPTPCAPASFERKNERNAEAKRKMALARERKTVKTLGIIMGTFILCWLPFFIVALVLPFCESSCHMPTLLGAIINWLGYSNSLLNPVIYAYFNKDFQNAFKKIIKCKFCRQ
From the text: as §1, §2
Frozen membrane preparations were thawed, homogenized with an Ultra-Turrax and mixed with SPA beads (YSI coated WGA, GE Healthcare/Amersham, Buckinghamshire, UK) in assay buffer containing 50 mM Tris-Base, 4 mM MgCl2, 4 mM CaCl2 (only 5-HT1B), 1 mM EDTA, and adjusted to pH 7.4 with HCl. […] The binding assays were performed in 384-well plates in a final volume of 90 μL/well with the following additions: 9 μL binding buffer; 1 μL compound/DMSO/nonspecific; 20 μL radioligand; and 60 μL beads/membrane mixture. Non-specific binding was defined by using 10 μM WAY100635 for 5-HT1A and 10 μM Methiothepin for 5-HT1B. The assay plates were incubated for 4 hours where after the plates are counted in a Wallac 1450 Microbeta Trilux counter (PerkinElmer LifeScience, US) or similar. Data from the experiments were analyzed using a four parameter logistic equation as follows: Y=Bottom+(Top-Bottom)/1+10^(LogEC50-X)nH.

Sequence of 5-HT1B receptor (P28222 whole entry): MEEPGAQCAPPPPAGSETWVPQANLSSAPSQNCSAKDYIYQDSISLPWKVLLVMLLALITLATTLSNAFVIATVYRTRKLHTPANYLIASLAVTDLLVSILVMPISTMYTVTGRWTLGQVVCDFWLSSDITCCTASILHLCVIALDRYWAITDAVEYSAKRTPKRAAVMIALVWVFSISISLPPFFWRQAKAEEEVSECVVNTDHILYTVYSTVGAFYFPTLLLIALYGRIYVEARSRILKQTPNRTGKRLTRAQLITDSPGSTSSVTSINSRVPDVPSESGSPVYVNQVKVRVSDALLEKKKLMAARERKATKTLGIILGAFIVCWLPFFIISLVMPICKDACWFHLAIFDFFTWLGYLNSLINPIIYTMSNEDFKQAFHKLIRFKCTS

| Compound | Ki [1] [nM] | Ki [2] [nM] |
| --- | --- | --- |
| O=C(c1cc2cccc(N3CCN(CCc4ccccn4)CC3)c2o1)N1CCN(c2nccs2)CC1 [Example 23, (7-(4-(2-(Pyridin-2-yl)ethyl)piperazin-1-yl)benzofuran-2-yl)(4-(thiazol-2-yl)piperazin-1-yl)methanone] | 1.4 | 4.2 |
| COc1cccnc1N1CCC(NC(=O)c2cc3cccc(N4CCN(CCc5ccccn5)CC4)c3o2)CC1 [Example 24, N-(1-(3-Methoxypyridin-2-yl)piperidin-4-yl)-7-(4-(2-(pyridin-2-yl)ethyl)piperazin-1-yl)benzofuran-2-carboxamide] | 0.56 | 0.42 |
| CN(Cc1ccccn1)C(=O)c1cc2cccc(N3CCN(CCc4ccccn4)CC3)c2o1 [Example 25, N-Methyl-7-(4-(2-(pyridin-2-yl)ethyl)piperazin-1-yl)-N-(pyridin-2-ylmethyl)benzofuran-2-carboxamide] | 31 | 2.9 |
| O=C(NC1(c2ccccn2)CC1)c1cc2cccc(N3CCN(CCc4ccccn4)CC3)c2o1 [Example 27, N-(1-(Pyridin-2-yl)cyclopropyl)-7-(4-(2-(pyridin-2-yl)ethyl)piperazin-1-yl)benzofuran-2-carboxamide] | 35 | 2.3 |
| O=C(NCC1CCOCC1)c1cc2cccc(N3CCN(CCc4ccccn4)CC3)c2o1 [Example 31, 7-(4-(2-(Pyridin-2-yl)ethyl)piperazin-1-yl)-N-((tetrahydro-2H-pyran-4-yl)methyl)benzofuran-2-carboxamide] | 50 | 1.5 |
| CC(NC(=O)c1cc2cccc(N3CCN(CCc4ccccn4)CC3)c2o1)c1ccnn1C (centres unmarked) [Example 32, N-(1-(1-Methyl-1H-pyrazol-5-yl)ethyl)-7-(4-(2-(pyridin-2-yl)ethyl)piperazin-1-yl)benzofuran-2-carboxamide] | 280 | 12 |
| Cc1ccc(C(C)NC(=O)c2cc3cccc(N4CCN(CCc5ccccn5)CC4)c3o2)cn1 (centres unmarked) [Example 33, N-(1-(6-Methylpyridin-3-yl)ethyl)-7-(4-(2-(pyridin-2-yl)ethyl)piperazin-1-yl)benzofuran-2-carboxamide] | 44 | 2.1 |

Results, then the compound that gave them:

| Ki [1] [nM] | Ki [2] [nM] | Compound |
| --- | --- | --- |
| 9.1 | 0.91 | N#Cc1cccc(CNC(=O)c2cc3cccc(N4CCN(CCc5ccccn5)CC4)c3o2)c1 [Example 22, N-(3-Cyanobenzyl)-7-(4-(2-(pyridin-2-yl)ethyl)piperazin-1-yl)benzofuran-2-carboxamide] |
| 2.3 | 0.91 | COc1cccc(CNC(=O)c2cc3cccc(N4CCN(CCc5ccccn5)CC4)c3o2)c1 [Example 26, N-(3-Methoxybenzyl)-7-(4-(2-(pyridin-2-yl)ethyl)piperazin-1-yl)benzofuran-2-carboxamide] |
| 1 | 0.85 | COc1ccc(CNC(=O)c2cc3cccc(N4CCN(CCc5ccccn5)CC4)c3o2)cc1 [Example 28, N-(4-Methoxybenzyl)-7-(4-(2-(pyridin-2-yl)ethyl)piperazin-1-yl)benzofuran-2-carboxamide] |
| 19 | 2 | Cc1ccnc(CCNC(=O)c2cc3cccc(N4CCN(CCc5ccccn5)CC4)c3o2)n1 [Example 29, N-(2-(4-Methylpyrimidin-2-yl)ethyl)-7-(4-(2-(pyridin-2-yl)ethyl)piperazin-1-yl)benzofuran-2-carboxamide] |
| 38 | 3.8 | Cc1ncc(CNC(=O)c2cc3cccc(N4CCN(CCc5ccccn5)CC4)c3o2)cn1 [Example 34, N-((2-Methylpyrimidin-5-yl)methyl)-7-(4-(2-(pyridin-2-yl)ethyl)piperazin-1-yl)benzofuran-2-carboxamide] |
| 34 | 2 | O=C(NCc1cccnc1)c1cc2cccc(N3CCN(CCc4ccccn4)CC3)c2o1 [Example 35, 7-(4-(2-(Pyridin-2-yl)ethyl)piperazin-1-yl)-N-(pyridin-3-ylmethyl)benzofuran-2-carboxamide] |
